One assay deals with LSD1 (Homo sapiens (Human), UniProt O60341). Put plainly: In vitro enzyme inhibition assay - LSD1 (HTRF). It is filed as biochemical. A general note: In TR-FRET formats the signal depends on donor and acceptor labels being close together.
The target in the next assay is pan-HDAC. Put plainly: In vitro enzyme inhibition assay - HDAC (HDAC-Glo I/II), pan-HDAC. Format: biochemical. Put shortly:
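The compound, serially diluted 5-fold in DMSO across 8 concentrations starting from a 1 mM stock, was made up as 4× working solutions in HDAC buffer. It was then tested in the HDAC-Glo I/II system, and luminescence was recorded. IC50 values came from variable-slope four-parameter curves of inhibition rate.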

A further assay concerns the target HDAC8 (Homo sapiens (Human), UniProt Q9BY41). The experiment in a line: In vitro enzyme inhibition assay - HDAC (HDAC-Glo I/II), HDAC8. Format: biochemical. The note with it: read-out: HDAC IC50 (nM) HDAC 8. Here is the method:
2. In Vitro Enzyme Inhibition Assay—HDAC
The effect of the compound on the enzymatic activity of pan-HDAC and two isoforms (HDAC1 and HDAC8) was examined using the HDAC-Glo I/II Assay and Screening System assay to assess the level of inhibition of HDAC protease activity and selectivity in each isoform. The proteins and detection reagents were from the HDAC-Glo™ I/II Assay and Screening System (Promega). A 1 mM stock solution of the compound was prepared in DMSO and diluted in a 5-fold gradient to create a series of 8 concentrations, and a specific volume of the highest concentration was diluted 25 times with HDAC Buffer to obtain 4× working solution of the compound. […] The 384-well plate was then read on a multifunctional microplate reader, with the Luminescence channel selected to record Luminescence values (RLU). The inhibition rate was calculated using the following formula: […]
Note: ‘Negative’ refers to the group without the inhibitor; ‘Blank’ refers to the group without the enzyme.
The IC50 value was calculated by fitting the inhibition rate by GraphPad Prism software, employing log (inhibitor) vs. response-Variable Slope (four parameters) model.

In a further assay the test system is NCI-H1417 cells. Put plainly: In vitro cell inhibition assay - H1417 cell proliferation (CellTiter-Glo). Format: cell-based. The note with it: Homo sapiens, NCI-H1417, H1417 small cell lung cancer cell proliferation. Put shortly: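 Cells exposed to 8 compound concentrations (5-fold dilutions) in BEGM with 10% FBS for 7 days at 37° C., 5% CO2. Viable cells measured by CellTiter-Glo luminescence; inhibition versus no-inhibitor and no-cell controls, IC50 fitted.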
(In ATP-based viability assays light output follows the ATP content of the culture.)

The subject of the next assay is NCI-H69 cells. The experiment in a line: In vitro cell inhibition assay - NCI-H69 cell proliferation (CellTiter-Glo). It is filed as cell-based. The note with it: Homo sapiens, NCI-H69, H69 small cell lung cancer cell proliferation. Put shortly: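 Proliferation was assessed after a 7-day compound treatment of cells seeded at 1×10^3 per well. IC50 values came from fitting inhibition rates derived from CellTiter-Glo luminescence.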

Counter-ions that a name gives are not always drawn. Bounds are passed on as bounds.

HDAC8, sequence (Q9BY41 whole entry): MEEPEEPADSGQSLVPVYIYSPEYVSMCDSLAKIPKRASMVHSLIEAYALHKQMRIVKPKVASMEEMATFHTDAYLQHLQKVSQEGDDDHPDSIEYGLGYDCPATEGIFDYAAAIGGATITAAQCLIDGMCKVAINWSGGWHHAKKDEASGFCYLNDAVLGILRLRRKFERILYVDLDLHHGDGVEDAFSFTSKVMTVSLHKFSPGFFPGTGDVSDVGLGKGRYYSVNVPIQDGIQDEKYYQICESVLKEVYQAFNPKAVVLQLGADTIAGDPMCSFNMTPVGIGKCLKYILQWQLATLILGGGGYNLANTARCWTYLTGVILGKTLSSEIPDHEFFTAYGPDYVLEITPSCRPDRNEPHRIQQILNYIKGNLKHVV

As for `N#Cc1ccc(-c2nc(N3CCC(N)CC3)cc(O)c2-c2ccc(OCCCCCCC(=O)NO)c(O)c2)cc1F` [Example 19, 7-(4-(6-(4-aminopiperidin-1-yl)-2-(4-cyano-3-fluorophenyl)-4-hydroxypyridin-3-yl)-2-hydroxyphenoxy)-N-hydroxyheptanamide hydrochloride], the IC50 (in general, the concentration that gives 50% inhibition) against LSD1 stood at 0.86 nM; against pan-HDAC it was 174 nM; at HDAC8 it was 221 nM; in the assay on NCI-H1417 cells, 2820 nM.

In the case of `N#Cc1ccc(-c2c(-c3ccc(OCCCCCCC(=O)NO)c(O)c3)cnc(N3CCC(N)CC3)c2C#N)cc1F` [Example 25, 7-(4-(6-(4-Aminopiperidin-1-yl)-5-cyano-4-(4-cyano-3-fluorophenyl)pyridin-3-yl)-2-hydroxyphenoxy)-N-hydroxyheptanamide hydrochloride], the concentration for half-maximal inhibition (IC50) worked out at 0.23 nM at LSD1, 6.66 nM at pan-HDAC, 129 nM on HDAC8 and 50.1 nM in the assay on NCI-H1417 cells.

Turning to `COc1cc(N2CCC(N)CC2)nc(-c2ccc(C#N)c(F)c2)c1-c1ccc(OCCCCCCC(=O)NO)c(O)c1` [Example 27, 7-(4-(6-(4-aminopiperidin-1-yl)-2-(4-cyano-3-fluorophenyl)-4-methoxypyridin-3-yl)-2-hydroxyphenoxy)-N-hydroxyheptanamide hydrochloride], the IC50 against LSD1 came out at 1.38 nM; against pan-HDAC, 134 nM; on HDAC8, 186 nM; with NCI-H1417 cells it was 48.9 nM.

In the case of `N#Cc1ccc(-c2cc(C(=O)N3C4CCC3CC(N)C4)sc2-c2ccc(OCCCCCCC(=O)NO)c(O)c2)cc1F` (stereo not drawn) [Example 32, 7-(4-(5-(3-amino-8-azabicyclo[3.2.1]octane-8-carbonyl)-3-(4-cyano-3-fluorophenyl)thiophen-2-yl)-2-hydroxyphenoxy)-N-hydroxyheptanamide hydrochloride], the IC50 against LSD1 turned out to be 0.35 nM; on pan-HDAC it was 14 nM; at HDAC8, 279 nM; with NCI-H1417 cells, 54.7 nM.

Consider `N#Cc1ccc(-c2cc(OCc3ccc(/C=C/C(=O)NO)cc3)cc(N3CCC(N)CC3)n2)cc1F` [Example 69, (E)-3-(4-(((2-(4-Aminopiperidin-1-yl)-6-(4-cyano-3-fluorophenyl)pyridin-4-yl)oxy)methyl)phenyl)-N-hydroxyacrylamide formate], for which the IC50 at LSD1 is > 1000 nM; against pan-HDAC, 30.1 nM; at HDAC8, 198 nM.

Turning to `COc1ccc(-c2cnc(N3CCC(N)(CCc4ccc(/C=C/C(=O)NO)cc4)CC3)c(C#N)c2-c2ccc(C#N)c(F)c2)cc1O` [Example 86, (E)-3-(4-(2-(4-amino-1-(3-cyano-4-(4-cyano-3-fluorophenyl)-5-(3-hydroxy-4-methoxyphenyl)pyridin-2-yl)piperidin-4-yl)ethyl)phenyl)-N-hydroxyacrylamide formate], the IC50 worked out at 9.46 nM against LSD1; 13.8 nM at pan-HDAC; 578 nM at HDAC8; 15.4 nM in the assay on NCI-H1417 cells; 145 nM in the assay on NCI-H69 cells.

Take `CN(C)c1ccc(-c2cnc(N3CCC(NCc4ccc(/C=C/C(=O)NO)cc4)CC3)c(C#N)c2-c2ccc(C#N)c(F)c2)cc1O` [Example 153, (E)-3-(4-(((1-(3-Cyano-4-(4-cyano-3-fluorophenyl)-5-(4-(dimethylamino)-3-hydroxyphenyl)pyridin-2-yl)piperidin-4-yl)amino)methyl)phenyl)-N-hydroxyacrylamide formate]: the IC50 came to 0.74 nM against LSD1; 5.49 nM on pan-HDAC; 400 nM on HDAC8; 6.21 nM with NCI-H1417 cells; 65.5 nM in the assay on NCI-H69 cells.

As for `COc1ccc(-c2cnc(N3CCC(NCC4CC=C(/C=C/C(=O)NO)CC4)CC3)c(C#N)c2-c2ccc(C#N)c(F)c2)cc1O` (stereo not drawn) [Example 155, (E)-3-(4-(((1-(3-Cyano-4-(4-cyano-3-fluorophenyl)-5-(3-hydroxy-4-methoxyphenyl)pyridin-2-yl)piperidin-4-yl)amino)methyl)cyclohex-1-en-1-yl)-N-hydroxyacrylamide formate], the half-maximal inhibitory concentration (IC50) at LSD1 is 0.58 nM; against pan-HDAC, 20 nM; at HDAC8, 23.7 nM; with NCI-H1417 cells, 11.5 nM; in the assay on NCI-H69 cells, 314 nM.

With `COc1cc(O)c(-c2cnc(N3CCC(NCc4ccc(/C=C/C(=O)NO)cc4)CC3)c(C#N)c2-c2ccc(C#N)c(F)c2)cc1O` [Example 158, (E)-3-(4-(((1-(3-Cyano-4-(4-cyano-3-fluorophenyl)-5-(2,5-dihydroxy-4-methoxyphenyl)pyridin-2-yl)piperidin-4-yl)amino)methyl)phenyl)-N-hydroxyacrylamide trifluoroacetate], the IC50 is 0.73 nM against LSD1; 0.61 nM against pan-HDAC; 87.8 nM on HDAC8; 93.6 nM in the assay on NCI-H1417 cells; 250 nM with NCI-H69 cells.

For `COc1ccc(-c2cnc(N3CCC(NCc4ccc(/C=C/C(=O)NO)nn4)CC3)c(C#N)c2-c2ccc(C#N)c(F)c2)cc1O` [Example 160, (E)-3-(6-(((1-(3-Cyano-4-(4-cyano-3-fluorophenyl)-5-(3-hydroxy-4-methoxyphenyl)pyridin-2-yl)piperidin-4-yl)amino)methyl)pyridazin-3-yl)-N-hydroxyacrylamide formate], the IC50 against LSD1 stood at 1.12 nM; at pan-HDAC it was 1.48 nM; at HDAC8, 184 nM; with NCI-H1417 cells, 5.59 nM; in the assay on NCI-H69 cells, 80.6 nM.

In the case of `Cc1c(O)cc(-c2cnc(N3CCC(NCc4ccc(/C=C/C(=O)NO)cc4)CC3)c(C#N)c2-c2ccc(C#N)c(F)c2)cc1F` [Example 161, (E)-3-(4-(((1-(3-Cyano-4-(4-cyano-3-fluorophenyl)-5-(3-fluoro-5-hydroxy-4-methylphenyl)pyridin-2-yl)piperidin-4-yl)amino)methyl)phenyl)-N-hydroxyacrylamide formate], the IC50 on LSD1 turned out to be 0.58 nM; against pan-HDAC it was 6.83 nM; at HDAC8, 304 nM; in the assay with NCI-H1417 cells it was 3.13 nM; with NCI-H69 cells, 65 nM.

With `COc1ccc(-c2cnc(N3CCC(NCCOc4ccc(C(=O)NO)cc4)CC3)c(C#N)c2-c2ccc(C#N)c(F)c2)cc1O` [Example 164, 4-(2-[(1-(3-Cyano-4-(4-cyano-3-fluorophenyl)-5-(3-hydroxy-4-methoxyphenyl)pyridin-2-yl)piperidin-4-yl)amino]ethoxy)-N-hydroxybenzamide formate], the IC50 against LSD1 amounted to 0.44 nM; on pan-HDAC it was 38.1 nM; at HDAC8 it was 332 nM; with NCI-H1417 cells it was 2.66 nM; in the assay with NCI-H69 cells, 432 nM.

As for `COc1cc(OC)c(-c2cnc(N3CCC(NCc4ccc(/C=C/C(=O)NO)cc4)CC3)c(C#N)c2-c2ccc(C#N)c(F)c2)cc1O` [Example 165, (E)-3-(4-(((1-(3-Cyano-4-(4-cyano-3-fluorophenyl)-5-(5-hydroxy-2,4-dimethoxyphenyl)pyridin-2-yl)piperidin-4-yl)amino)methyl)phenyl-N-hydroxyacrylamide hydrochloride], the half-maximal inhibitory concentration (IC50) at LSD1 is 1.35 nM; on pan-HDAC it was 7.31 nM; at HDAC8, 145 nM; with NCI-H1417 cells, 11.4 nM; with NCI-H69 cells, 114 nM.

In the case of `COc1ccc(-c2cnc(N3CCC(NCc4ccc(/C=C/C(=O)NO)cc4)CC3)c(C#N)c2-c2ccc(C#N)c(O)c2)cc1O` [Example 166, (E)-3-(4-(((1-(3-Cyano-4-(4-cyano-3-hydroxyphenyl)-5-(3-hydroxy-4-methoxyphenyl)pyridin-2-yl)piperidin-4-yl)amino)methyl)phenyl-N-hydroxyacrylamide hydrochloride], the IC50 against LSD1 turned out to be 15.1 nM; against pan-HDAC, 2.27 nM; at HDAC8, 64 nM; in the assay with NCI-H1417 cells, 61.6 nM; with NCI-H69 cells, 208 nM.

Consider `COc1c(O)cc(-c2cnc(N3CCC(NCc4ccc(/C=C/C(=O)NO)cc4)CC3)c(C#N)c2-c2ccc(C#N)c(F)c2)cc1F` [Example 168, (E)-3-(4-(((1-(3-Cyano-4-(4-cyano-3-fluorophenyl)-5-(3-fluoro-5-hydroxy-4-methoxyphenyl)pyridin-2-yl)piperidin-4-yl)amino)methyl)phenyl)-N-hydroxyacrylamide formate], for which the IC50 worked out at 1.34 nM at LSD1; 7.35 nM against pan-HDAC; 250 nM on HDAC8; 5.23 nM in the assay with NCI-H1417 cells; 65.6 nM in the assay with NCI-H69 cells.

The values above are taken from patent US20250304549A1, “HYDROXYAMIDE DERIVATIVE AND USE THEREOF” (SICHUAN HUIYU PHARMACEUTICAL CO., LTD., priority 2022, published 2025).
